Key:
[1] = test system: acute myeloid leukemia cells (MOLM-13); experiment: In vitro potency (CellTiter-Glo, 96 h), MOLM-13; type: cell-based; settings: Homo sapiens, MOLM-13, 96 h, read-out: MOLM-13 IC50, Table 28; CPT free drugs; acute myeloid leukemia cells MOLM-13; 96 h, CellTiter-Glo
Procedure, shortened: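 Antibody-drug conjugates, prepared as dilution series in culture medium, were added to cells seeded a day earlier in RPMI 1640 supplemented with 20% FBS. After four days at 37 °C, luminescence measured growth inhibition.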

[2] = test system: non-small-cell lung cancer cells (Calu1); experiment: In vitro potency (CellTiter-Glo, 96 h), Calu1; type: cell-based; settings: Homo sapiens, Calu-1, 96 h, read-out: Calu1 IC50
Procedure, shortened: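 RPMI 1640/20% FBS cultures, log phase, plated 24 h → ADC titration → 4 d, 37 °C → luminescence → IC50, ng/mL.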

neutrophil elastase = target: T1, neutrophil elastase (Homo sapiens, UniProt P08246); experiment: Neutrophil elastase assay of ADCs; type: biochemical; settings: 8-load ADC, 37 C, 3 h, pH 7.5, FIG. 6A
T1 sequence (P08246 30-267): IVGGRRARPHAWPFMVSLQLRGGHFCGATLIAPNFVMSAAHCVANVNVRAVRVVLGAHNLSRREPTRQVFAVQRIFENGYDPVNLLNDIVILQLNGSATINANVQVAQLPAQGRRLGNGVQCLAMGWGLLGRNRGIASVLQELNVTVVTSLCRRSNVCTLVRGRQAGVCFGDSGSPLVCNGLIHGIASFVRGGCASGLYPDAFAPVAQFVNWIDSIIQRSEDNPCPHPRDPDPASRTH
Method: To a mixture of 8-load ADC (5 ug), buffer (100 mM tris, 75 mM NaCl, pH 7.5; final concentration), and neutrophil elastase (100 ng) was added water to 20 uL. The reaction was incubated at 37 C for 3 h and then immediately analyzed by a QToF mass spectrometer.

[3] = test system: HPAFII cell line (Ag1 upregulated); experiment: In vitro cytotoxicity of Ag1 ADCs, HPAFII cells; type: cell-based; settings: in words, Tables 5a and 5b
Method: In vitro cytotoxicity. The cytotoxicity of a tripeptide-based Antibody Drug Conjugate was measured by a cell proliferation assay employing the protocol described in Promega Corp. Technical Bulletin TB288; and Mendoza et al., 2002, Cancer Res. 62:5485-5488), the methods of which are specifically incorporated by reference herein. Briefly, an aliquot of 40 μl of cell culture containing about 400 cells in medium is deposited in each well of a 384-well, opaque-walled plate. A 10 μL aliquot of free drug or Ligand-Drug Conjugate is added to the experimental wells and incubated for 96 h and are then equilibrated to room temperature for approximately 30 minutes whereupon a volume of CellTiter-Glo™ reagent equal to the volume of cell culture medium present in each well is added. The contents are mixed for 2 minutes on an orbital shaker to induce cell lysis and the plate is incubated at room temperature for 10 minutes to stabilize the luminescence signal for recordation.
The italicized values in Tables 5, 5a, and 5b indicate the percentage of cells remaining after 96 hr incubation at the maximum concentration of drug added. For convenience the numbering for the library members of Tables 5 and 5A are retained for the corresponding Drug linker compounds that are incorporated into the ADC of Tables 5, 5a, and 5b.

SMILES | IC50 [1] | IC50 [2] | percentage of drug cleaved from the heavy chain by neutrophil elastase (neutrophil elastase) | cytotoxicity compared with comparator dipeptide-based ADC (1) [3] | efficacy compared with comparator dipeptide-based ADC (1) [3]
CC[C@@]1(O)C(=O)OCc2c1cc1n(c2=O)Cc2c-1nc1cc3c(cc1c2CN)CC=C3 [Compound 5] | 258 nM | 129 nM | lower than that found for non-targeted ADC 37 | – | –
CC[C@@]1(O)C(=O)OCc2c1cc1n(c2=O)Cc2c-1nc1cc3c(cc1c2CN(C)CCCN)OCO3 [Compound 8, (5S)-14-[[3-aminopropyl(methyl)amino]methyl]-5-ethyl-S-hydroxy-7,18,20-trioxa-11,24-diazahexacyclo [11.11.0.02,11.04,9.015,23.017,21]tetracosa-1(13),2,4(9),14,16,21,23-heptaene-6,10-dione; 2,2,2-trifluoroacetic acid] | – | – | – | less cytotoxic | similarly efficacious

Reference: patent US20240207427A1, “SELECTIVE DRUG RELEASE FROM INTERNALIZED CONJUGATES OF BIOLOGICALLY ACTIVE COMPOUNDS” (priority 2021, published 2024)
